Experimental data as given in US20150237857A1, “ANTIBACTERIAL INHIBITORS” (MCMASTER UNIVERSITY, priority 2012, published 2015).
≈ marks a conversion by molar mass, not a printed value. Read-outs that look alike come from different tables or passages of the source.

Columns and labels:
[1] = biological target: recombinant E. coli BioA (Escherichia coli, UniProt P12995); assay: BioA inhibition through a feeding assay of a bioA auxotroph; format: biochemical; conditions: relative to DMSO control
Description: To determine if the step catalyzed by BioA was the target of this inhibitor, the inhibitory activity of MAC-0013772 against recombinant E. coli BioA was assayed through a feeding assay of a bioA auxotroph.

[2] = test system: E. coli MG1655; assay: Minimum inhibitory concentration (MIC) determination; conditions: for MIC: Escherichia coli
Description: The MIC values were determined in liquid minimal media and minimal media supplemented with amino acids, vitamins and nucleobases.
A single colony of E. coli MG1655 was grown overnight in 5 ml of M9 minimal media. The saturated culture was diluted 1/50 in fresh minimal media and allowed to grow until the OD600 reached ˜0.4. […] After mixing of the bacterial culture with the compounds, the OD600 of the plates was read using Envision to account for background absorbance. The plates were then incubated in a 37° C. stationary incubator for 16 hours before measuring their OD600. After subtracting any background absorbance contributed by colored or precipitated compounds, the MIC was defined as the lowest concentration of antibiotic that inhibits visible growth.

[3] = test system: Mycobacteria smegmatis; assay: MIC against Mycobacteria smegmatis in absence and presence of biotin; format: cell-based
[4] = test system: E. coli MG1655; assay: Metabolic suppression profiling (ChemArray); format: cell-based; conditions: for metabolic suppression profile: metabolites that suppress growth inhibitory activity: ChemArray
[5] = MG1655, 16 h, read-out: MIC +bio, presence of 2 nM of biotin
[6] = MG1655, read-out: MIC −bio, absence of biotin
[7] = absence of biotin, read-out: MIC −bio
[8] = presence of 2 nM of biotin, read-out: MIC +bio

recombinant E. coli BioA, sequence (P12995 whole entry): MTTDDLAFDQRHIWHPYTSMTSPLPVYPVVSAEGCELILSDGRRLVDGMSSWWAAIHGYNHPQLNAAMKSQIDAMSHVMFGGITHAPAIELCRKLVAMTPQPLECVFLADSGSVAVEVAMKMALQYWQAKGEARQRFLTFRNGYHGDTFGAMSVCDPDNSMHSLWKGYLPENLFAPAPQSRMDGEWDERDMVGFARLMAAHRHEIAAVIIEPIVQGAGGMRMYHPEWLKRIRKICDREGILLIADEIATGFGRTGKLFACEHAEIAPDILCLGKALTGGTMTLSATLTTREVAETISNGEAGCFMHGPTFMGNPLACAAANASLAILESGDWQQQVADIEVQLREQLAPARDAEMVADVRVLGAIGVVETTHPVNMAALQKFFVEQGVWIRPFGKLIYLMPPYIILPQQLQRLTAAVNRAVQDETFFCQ

Row | Structure (SMILES) | inhibition at 1 µM [1] [%] | inhibition at 10 µM [1] [%] | MIC [2, 5] [µg/mL] | MIC [2, 6] [µg/mL] | MIC [3, 7] [µg/mL] | MIC [3, 8] [µg/mL] | further results
1 | NNC(=O)CSc1cccc([N+](=O)[O-])c1 [Compound 1a, 2-(3-nitrophenylthio)acetohydrazide] | 42 | 84 | > 256 | 256 (≈ 1130 µM) | 16 | > 256 | –
2 | NNC(=O)CSc1ccc([N+](=O)[O-])cc1 [Compound 1b, 2-(4-nitrophenylthio)acetohydrazide] | 66 | 100 | – | – | 4 | > 256 | antibacterial potency against M. smegmatis compared with MAC-0013772 (in words) [3]: potencies similar to that of MAC-0013772
3 | NNC(=O)CSc1ccccc1 [Compound 1c, 2-(phenylthio)acetohydrazide] | 49 | 100 | > 256 | 64 (≈ 351 µM) | 4 | > 256 | antibacterial potency against M. smegmatis compared with MAC-0013772 (in words) [3]: potencies similar to that of MAC-0013772
4 | NNC(=O)CSc1ccccc1F [Compound 1d, 2-(2-fluorophenylthio)acetohydrazide] | 36 | 100 | > 256 | 32 (≈ 160 µM) | 4 | > 256 | antibacterial potency against M. smegmatis compared with MAC-0013772 (in words) [3]: potencies similar to that of MAC-0013772
5 | NNC(=O)CSc1ccccc1Cl [Compound 1e, 2-(2-chlorophenylthio) acetohydrazide] | 63 | 100 | > 256 | 16 (≈ 73.8 µM) | 4 | > 256 | antibacterial activity against E. coli (in words) [2]: does not gravely alter antibacterial activity; antibacterial potency against M. smegmatis compared with MAC-0013772 (in words) [3]: potencies similar to that of MAC-0013772
6 | NNC(=O)CSc1ccccc1O [Compound 1f, 2-(2-hydroxyphenylthio)acetohydrazide] | 32 | 70 | 256 | 256 (≈ 1290 µM) | 32 | 256 | –
7 | NNC(=O)CSc1ccccc1N [Compound 1g, 2-(2-aminophenylthio)acetohydrazide] | 58 | 100 | > 256 | 256 (≈ 1300 µM) | 32 | 256 | –
8 | Cc1ccccc1SCC(=O)NN [Compound 1h, 2-(o-tolylthio)acetohydrazide] | 81 | 100 | > 256 | 16 (≈ 81.5 µM) | 4 | > 256 | antibacterial activity against E. coli (in words) [2]: does not gravely alter antibacterial activity; antibacterial potency against M. smegmatis compared with MAC-0013772 (in words) [3]: potencies similar to that of MAC-0013772
9 | COc1ccccc1SCC(=O)NN [Compound 1i, 2-(2-methoxyphenylthio)acetohydrazide] | 65 | 100 | > 256 | 128 (≈ 603 µM) | 16 | > 256 | –
10 | CC(=O)NNC(=O)CSc1ccc([N+](=O)[O-])cc1 [Compound 1j] | 0 | 0 | > 256 | > 256 | > 256 | > 256 | –
11 | CCC(=O)CSc1ccccc1[N+](=O)[O-] [Compound 1k] | 0 | 0 | > 256 | > 256 | > 256 | > 256 | –
12 | NC(=O)CSc1ccccc1[N+](=O)[O-] [Compound 1l] | 0 | 0 | > 256 | > 256 | 128 | > 256 | –
13 | CC(=O)CSc1ccccc1[N+](=O)[O-] [Compound 1m] | 0 | 0 | > 256 | > 256 | 256 | 256 | –
14 | O=C(O)CSc1ccccc1[N+](=O)[O-] [Compound 1n] | 0 | 0 | > 256 | > 256 | > 256 | > 256 | –
15 | CSCC(=O)NN [Compound 2a] | 50 | 64 | 64 | 64 (≈ 533 µM) | 32 | 32 | suppression of growth inhibition in the presence of biotin (in words) ([2]; presence of biotin): not suppressed
16 | NNC(=O)CS [Compound 2b] | 20 | 34 | 256 | 256 (≈ 2410 µM) | 32 | 32 | –
17 | CCCC(=O)NN [Compound 2c] | 1 | 40 | – | – | – | – | MIC ([2]; MG1655, read-out: MIC −bio): > 256 µg/mL; MIC ([3]; read-out: MIC +bio): 64 µg/mL; MIC ([3]; read-out: MIC −bio): 64 µg/mL
18 | CCC(=O)NN [Compound 2d] | 0 | 8 | > 256 | > 256 | 64 | 64 | –
19 | NNC(=O)C1Cc2ccccc2S1 (centres unmarked) [Compound 2f, 2,3-dihydrobenzo[b]thiophene-2-carbohydrazide] | 15 | 69 | > 256 | > 256 | 64 | > 256 | –
20 | NNC(=O)CSCc1ccccc1 [Compound 2g, 2-(benzylthio)acetohydrazide] | 60 | 100 | > 256 | 64 (≈ 326 µM) | 8 | > 256 | antibacterial potency against M. smegmatis compared with MAC-0013772 (in words) [3]: potencies similar to that of MAC-0013772
21 | NNC(=O)CSc1ccc2ccccc2c1 [Compound 2h, 2-(naphthalen-2-ylthio)acetohydrazide] | 71 | 100 | > 256 | > 256 | 32 | > 256 | –
22 | NNC(=O)CSc1ccncc1 [Compound 2i, 2-(pyridin-4-ylthio)acetohydrazide] | 32 | 77 | > 256 | 64 (≈ 349 µM) | 8 | 128 | antibacterial potency against M. smegmatis compared with MAC-0013772 (in words) [3]: potencies similar to that of MAC-0013772
23 | NNC(=O)Cc1ccccc1[N+](=O)[O-] [Compound 2j] | 0 | 29 | > 256 | > 256 | 256 | > 256 | –
24 | N[C@@H]1CONC1=O [D-cycloserine, reference compound] | – | – | – | – | – | – | metabolic suppression profile: metabolites that suppress growth inhibitory activity ([4]; 4× MIC in M9 minimal media): suppressed by the addition of either D/L-alanine or glycine; suppression of growth inhibitory activity by glycine ([4]; 4× MIC in M9 minimal media): strongly suppressed
25 | CN(C)CCC(=O)c1ccc2c(c1)OCCO2 [MAC-0161738, 1-(2,3-dihydrobenzo[b][1,4]dioxin-6-yl)-3-(dimethylamino)propan-1-one] | – | – | – | – | – | – | suppression of growth inhibitory activity by glycine ([4]; 4× MIC in M9 minimal media): strongly suppressed
26 | O=C(CCN1CCCCC1)c1ccc2c(c1)OCCCO2 [MAC-0162065, 1-(3,4-dihydro-2H-benzo[b][1,4]dioxepin-7-yl)-3-(piperidin-1-yl)propan-1-one] | – | – | – | – | – | – | suppression of growth inhibitory activity by glycine ([4]; 4× MIC in M9 minimal media): strongly suppressed
27 | COc1cc(Cc2cnc(N)nc2N)cc(OC)c1OC [Trimethoprim, reference compound] | – | – | – | – | – | – | metabolic suppression profile: metabolites that suppress growth inhibitory activity ([4]; 4× MIC in M9 minimal media): only be suppressed by providing a mixture of all supplements or at least a mixture of amino acids and nucleobases
28 | O=C(O)CNCP(=O)(O)O [glyphosate, reference compound] | – | – | – | – | – | – | metabolic suppression profile: metabolites that suppress growth inhibitory activity ([4]; 4× MIC in M9 minimal media): could only be achieved by providing a mixture of amino acids; suppression of growth inhibitory activity by pools containing the aromatic amino acids ([4]; expanded ChemArray): fully reversed
29 | CCn1cc(C(=O)O)c(=O)c2cc(F)c(N3CCNCC3)cc21 [norfloxacin, reference compound] | – | – | – | – | – | – | metabolic suppression profile: metabolites that suppress growth inhibitory activity ([4]; 4× MIC in M9 minimal media): not altered in the presence of supplements
30 | Cc1cc(NS(=O)(=O)c2ccc(N)cc2)no1 [sulfamethoxazole, reference compound] | – | – | – | – | – | – | suppression of growth inhibitory activity by p-aminobenzoic acid (PABA) ([4]; 4× MIC in M9 minimal media, PABA in growth media): fully reversed; suppression of growth inhibitory activity by methionine ([4]; 4× MIC in M9 minimal media, methionine in growth media): to a certain extent
